Results reported in the kinase profiling compilation of Christmann-Franck et al. (2016).

Columns and labels:
Experiment in all cases: KINOMEscan competition binding
Conditions in all cases: compound 10.0 µM
[1] = target: ACVR2B (human) (UniProt Q13705)
[2] = target: AKT2 (human) (UniProt P31751)
[3] = target: AKT3 (human) (UniProt Q9Y243)
[4] = target: BTK (human) (UniProt Q06187)
[5] = target: CAMKK2 (human) (UniProt Q96RR4)
[6] = target: CDK14 (human) (UniProt O94921)
[7] = target: CDKL3 (human) (UniProt Q8IVW4)
[8] = target: CSK (human) (UniProt P41240)
[9] = target: CSNK1D (human) (UniProt P48730)
[10] = target: DMPK (human) (UniProt Q09013)
[11] = target: EIF2AK2 (human) (UniProt P19525)
Sequence of EIF2AK2 (human) (P19525 whole entry, looked up): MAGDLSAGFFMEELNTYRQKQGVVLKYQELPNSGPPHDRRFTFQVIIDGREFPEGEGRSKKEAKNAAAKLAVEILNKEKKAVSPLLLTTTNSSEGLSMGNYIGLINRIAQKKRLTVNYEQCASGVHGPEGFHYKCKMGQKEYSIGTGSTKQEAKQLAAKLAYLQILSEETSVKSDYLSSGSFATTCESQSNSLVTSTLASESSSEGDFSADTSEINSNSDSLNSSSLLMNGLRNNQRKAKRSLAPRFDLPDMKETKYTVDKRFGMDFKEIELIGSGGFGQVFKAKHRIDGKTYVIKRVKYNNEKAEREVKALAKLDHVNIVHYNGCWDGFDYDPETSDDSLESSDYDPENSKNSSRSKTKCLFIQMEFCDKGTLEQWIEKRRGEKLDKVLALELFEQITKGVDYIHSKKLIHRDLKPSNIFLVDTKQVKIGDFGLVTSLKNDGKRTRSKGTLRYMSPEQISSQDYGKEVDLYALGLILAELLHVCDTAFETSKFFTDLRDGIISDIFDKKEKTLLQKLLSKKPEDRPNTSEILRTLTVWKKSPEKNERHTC

[12] = target: ERBB3 (human) (UniProt P21860)
Sequence of ERBB3 (human) (P21860 whole entry, looked up): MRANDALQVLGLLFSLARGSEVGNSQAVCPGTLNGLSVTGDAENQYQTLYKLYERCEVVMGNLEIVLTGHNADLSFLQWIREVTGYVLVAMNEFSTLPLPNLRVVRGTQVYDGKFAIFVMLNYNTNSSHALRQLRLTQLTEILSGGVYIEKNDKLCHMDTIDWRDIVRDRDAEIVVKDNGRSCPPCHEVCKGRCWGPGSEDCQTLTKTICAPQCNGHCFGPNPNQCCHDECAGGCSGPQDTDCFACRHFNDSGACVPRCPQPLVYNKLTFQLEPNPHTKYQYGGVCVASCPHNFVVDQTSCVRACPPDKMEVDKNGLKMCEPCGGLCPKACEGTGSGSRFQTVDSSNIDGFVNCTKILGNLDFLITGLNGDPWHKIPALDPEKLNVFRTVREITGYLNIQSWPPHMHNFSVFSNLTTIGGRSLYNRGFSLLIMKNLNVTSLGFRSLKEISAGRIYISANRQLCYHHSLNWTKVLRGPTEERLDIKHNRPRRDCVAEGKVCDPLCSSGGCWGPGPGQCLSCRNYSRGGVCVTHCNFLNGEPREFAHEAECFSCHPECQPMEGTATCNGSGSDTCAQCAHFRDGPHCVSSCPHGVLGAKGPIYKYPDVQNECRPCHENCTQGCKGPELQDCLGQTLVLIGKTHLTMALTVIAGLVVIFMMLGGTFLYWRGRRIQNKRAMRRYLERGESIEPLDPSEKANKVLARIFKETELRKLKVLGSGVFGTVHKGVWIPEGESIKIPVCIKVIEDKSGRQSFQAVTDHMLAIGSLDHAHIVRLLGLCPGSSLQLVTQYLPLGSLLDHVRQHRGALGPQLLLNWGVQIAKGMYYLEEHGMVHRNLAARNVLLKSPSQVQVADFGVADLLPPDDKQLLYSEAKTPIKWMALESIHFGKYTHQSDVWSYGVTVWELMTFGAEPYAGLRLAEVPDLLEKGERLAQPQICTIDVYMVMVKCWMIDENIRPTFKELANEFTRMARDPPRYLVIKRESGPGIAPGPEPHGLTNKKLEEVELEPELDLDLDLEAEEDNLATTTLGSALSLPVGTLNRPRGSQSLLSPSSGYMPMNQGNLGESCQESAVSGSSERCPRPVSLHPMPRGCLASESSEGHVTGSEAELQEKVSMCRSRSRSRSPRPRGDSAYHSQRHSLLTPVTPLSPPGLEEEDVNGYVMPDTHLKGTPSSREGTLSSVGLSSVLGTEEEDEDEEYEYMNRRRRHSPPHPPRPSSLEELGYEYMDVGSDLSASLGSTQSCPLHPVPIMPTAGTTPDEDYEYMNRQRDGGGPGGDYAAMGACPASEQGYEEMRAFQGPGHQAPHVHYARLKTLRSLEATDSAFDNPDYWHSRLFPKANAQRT

[13] = target: FLT3 (human) (UniProt P36888)
[14] = target: HIPK3 (human) (UniProt Q9H422)
[15] = target: IGF1R (human) (UniProt P08069)
[16] = target: IRAK3 (human) (UniProt Q9Y616)
[17] = target: ITK (human) (UniProt Q08881)
Sequence of ITK (human) (Q08881 whole entry, looked up): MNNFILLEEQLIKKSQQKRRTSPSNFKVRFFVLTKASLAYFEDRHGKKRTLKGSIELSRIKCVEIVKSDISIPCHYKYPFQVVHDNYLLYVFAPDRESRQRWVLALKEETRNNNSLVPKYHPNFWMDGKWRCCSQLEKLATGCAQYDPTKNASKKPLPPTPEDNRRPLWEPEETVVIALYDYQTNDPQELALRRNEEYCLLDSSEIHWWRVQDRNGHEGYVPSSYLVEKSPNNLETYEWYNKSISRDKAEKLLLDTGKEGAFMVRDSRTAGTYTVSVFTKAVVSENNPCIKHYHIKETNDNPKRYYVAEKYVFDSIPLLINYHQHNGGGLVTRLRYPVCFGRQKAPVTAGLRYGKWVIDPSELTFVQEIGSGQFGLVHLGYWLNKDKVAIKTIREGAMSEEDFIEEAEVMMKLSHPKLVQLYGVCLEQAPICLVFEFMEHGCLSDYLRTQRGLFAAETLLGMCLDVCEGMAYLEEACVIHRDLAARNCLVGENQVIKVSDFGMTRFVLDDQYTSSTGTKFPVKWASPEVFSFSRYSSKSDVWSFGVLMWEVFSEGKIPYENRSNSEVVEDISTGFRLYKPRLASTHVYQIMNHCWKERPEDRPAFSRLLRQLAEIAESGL

[18] = system: KIT (human), P10721 [L576P]
[19] = target: MAPK10 (human) (UniProt P53779)
[20] = target: MATK (human) (UniProt P42679)
[21] = target: MYLK (human) (UniProt Q15746)
[22] = target: NTRK2 (human) (UniProt Q16620)
[23] = target: PDGFRA (human) (UniProt P16234)
[24] = target: PI4KB (human) (UniProt Q9UBF8)
[25] = target: PIM2 (human) (UniProt Q9P1W9)
[26] = target: PIP5K1C (human) (UniProt O60331)
[27] = target: PRKAA1 (human) (UniProt Q13131)
[28] = target: PRKCH (human) (UniProt P24723)
[29] = target: PRPF4B (human) (UniProt Q13523)
[30] = target: RPS6KA1 KD2 (human) (UniProt Q15418)
[31] = target: RPS6KA3 KD1 (human) (UniProt P51812)
[32] = target: SGK3 (human) (UniProt Q96BR1)
[33] = target: TBK1 (human) (UniProt Q9UHD2)
[34] = target: TESK1 (human) (UniProt Q15569)
[35] = target: TGFBR2 (human) (UniProt P37173)
Sequence of TGFBR2 (human) (P37173 whole entry, looked up): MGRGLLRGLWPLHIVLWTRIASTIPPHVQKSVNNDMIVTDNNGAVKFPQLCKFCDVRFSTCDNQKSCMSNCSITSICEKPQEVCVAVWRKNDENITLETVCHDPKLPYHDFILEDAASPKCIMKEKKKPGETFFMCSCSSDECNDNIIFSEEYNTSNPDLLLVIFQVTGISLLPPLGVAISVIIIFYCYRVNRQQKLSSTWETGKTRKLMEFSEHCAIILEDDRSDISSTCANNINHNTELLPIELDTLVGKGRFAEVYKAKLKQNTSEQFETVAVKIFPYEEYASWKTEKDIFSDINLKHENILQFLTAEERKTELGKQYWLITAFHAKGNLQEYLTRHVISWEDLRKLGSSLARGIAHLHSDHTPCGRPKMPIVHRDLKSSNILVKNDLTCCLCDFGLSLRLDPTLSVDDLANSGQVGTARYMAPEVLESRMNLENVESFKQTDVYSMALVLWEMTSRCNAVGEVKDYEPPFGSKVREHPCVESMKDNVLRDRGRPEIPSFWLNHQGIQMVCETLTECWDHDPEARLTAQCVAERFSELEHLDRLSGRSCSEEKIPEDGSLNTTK

[36] = target: TXK (human) (UniProt P42681)
[37] = target: TYK2 JH2 pseudokinase (human) (UniProt P29597)
[38] = target: ULK2 (human) (UniProt Q8IYT8)
[39] = target: WEE1 (human) (UniProt P30291)
[40] = target: ZAP70 (human) (UniProt P43403)
Sequence of ZAP70 (human) (P43403 whole entry, looked up): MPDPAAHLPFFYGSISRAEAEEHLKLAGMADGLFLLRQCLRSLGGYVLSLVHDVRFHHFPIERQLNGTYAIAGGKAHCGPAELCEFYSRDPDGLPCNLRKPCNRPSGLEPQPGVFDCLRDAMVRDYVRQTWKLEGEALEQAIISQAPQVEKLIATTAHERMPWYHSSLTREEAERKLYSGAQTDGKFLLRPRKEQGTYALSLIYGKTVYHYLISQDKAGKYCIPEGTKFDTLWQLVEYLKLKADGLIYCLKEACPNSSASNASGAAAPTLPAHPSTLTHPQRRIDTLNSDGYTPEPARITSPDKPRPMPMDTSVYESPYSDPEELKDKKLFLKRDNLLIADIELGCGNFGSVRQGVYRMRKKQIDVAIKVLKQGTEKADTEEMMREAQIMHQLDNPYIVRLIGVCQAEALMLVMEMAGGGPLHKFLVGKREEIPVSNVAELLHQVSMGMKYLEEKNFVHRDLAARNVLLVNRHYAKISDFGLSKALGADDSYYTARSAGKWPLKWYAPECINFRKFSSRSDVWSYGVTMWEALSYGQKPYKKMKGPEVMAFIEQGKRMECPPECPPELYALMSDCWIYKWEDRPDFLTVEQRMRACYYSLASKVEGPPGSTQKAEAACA

Sequence of BTK (human) (Q06187 whole entry, looked up): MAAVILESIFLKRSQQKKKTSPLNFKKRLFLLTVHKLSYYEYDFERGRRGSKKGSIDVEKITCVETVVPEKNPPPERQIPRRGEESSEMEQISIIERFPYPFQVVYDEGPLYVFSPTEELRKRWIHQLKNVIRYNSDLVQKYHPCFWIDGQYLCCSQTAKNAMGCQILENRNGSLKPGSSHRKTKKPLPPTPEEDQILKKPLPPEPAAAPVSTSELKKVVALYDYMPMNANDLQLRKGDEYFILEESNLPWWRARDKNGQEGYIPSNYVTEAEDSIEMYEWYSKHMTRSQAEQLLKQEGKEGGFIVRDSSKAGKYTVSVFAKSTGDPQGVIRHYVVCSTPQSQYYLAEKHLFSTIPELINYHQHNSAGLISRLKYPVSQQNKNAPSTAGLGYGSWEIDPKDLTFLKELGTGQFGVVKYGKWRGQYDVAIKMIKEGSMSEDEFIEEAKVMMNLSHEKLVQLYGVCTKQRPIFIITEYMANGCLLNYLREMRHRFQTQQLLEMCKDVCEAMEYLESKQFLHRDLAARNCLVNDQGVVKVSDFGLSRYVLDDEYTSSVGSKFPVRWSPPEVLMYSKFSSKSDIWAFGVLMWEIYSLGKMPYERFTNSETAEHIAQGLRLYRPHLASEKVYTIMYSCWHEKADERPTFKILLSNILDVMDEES
Sequence of AKT2 (human) (P31751 whole entry, looked up): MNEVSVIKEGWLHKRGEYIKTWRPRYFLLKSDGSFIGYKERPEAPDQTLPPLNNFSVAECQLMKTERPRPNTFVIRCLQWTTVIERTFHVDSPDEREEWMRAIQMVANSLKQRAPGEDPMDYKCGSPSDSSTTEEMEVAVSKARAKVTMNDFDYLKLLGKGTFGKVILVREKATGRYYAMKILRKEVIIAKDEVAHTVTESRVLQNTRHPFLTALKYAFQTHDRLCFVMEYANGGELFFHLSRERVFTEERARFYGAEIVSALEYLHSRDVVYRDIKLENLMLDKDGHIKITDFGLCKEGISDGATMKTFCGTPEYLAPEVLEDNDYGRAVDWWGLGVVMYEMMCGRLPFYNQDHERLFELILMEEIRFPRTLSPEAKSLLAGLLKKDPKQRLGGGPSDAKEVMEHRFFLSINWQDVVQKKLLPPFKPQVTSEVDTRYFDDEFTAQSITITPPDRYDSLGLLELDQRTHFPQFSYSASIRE

Row | SMILES | kinase still bound, per cent of control [1] [%] | kinase still bound, per cent of control [2] [%] | kinase still bound, per cent of control [3] [%] | kinase still bound, per cent of control [4] [%] | kinase still bound, per cent of control [5] [%] | kinase still bound, per cent of control [6] [%] | kinase still bound, per cent of control [7] [%] | kinase still bound, per cent of control [8] [%] | kinase still bound, per cent of control [9] [%] | kinase still bound, per cent of control [10] [%] | kinase still bound, per cent of control [11] [%] | kinase still bound, per cent of control [12] [%] | kinase still bound, per cent of control [13] [%] | kinase still bound, per cent of control [14] [%] | kinase still bound, per cent of control [15] [%] | kinase still bound, per cent of control [16] [%] | kinase still bound, per cent of control [17] [%] | kinase still bound, per cent of control [18] [%] | kinase still bound, per cent of control [19] [%] | kinase still bound, per cent of control [20] [%] | also measured
1 | COc1cc2ncnc(-n3nc(-c4ccccn4)nc3N)c2cc1OC | 49 | 42 | 100 | 51 | 9.1 | 62 | 5.3 | 43 | 2.8 | 100 | 21 | 9 | 20 | 0 | 100 | 12 | 100 | 4.5 | 1.4 | 57 | kinase still bound, per cent of control [21]: 0.8%; kinase still bound, per cent of control [22]: 47%; kinase still bound, per cent of control [23]: 57%; kinase still bound, per cent of control [24]: 9.8%; kinase still bound, per cent of control [25]: 78%; kinase still bound, per cent of control [26]: 5%; kinase still bound, per cent of control [27]: 19%; kinase still bound, per cent of control [28]: 100%; kinase still bound, per cent of control [29]: 93%; kinase still bound, per cent of control [30]: 14%; kinase still bound, per cent of control [31]: 2.8%; kinase still bound, per cent of control [32]: 74%; kinase still bound, per cent of control [33]: 24%; kinase still bound, per cent of control [34]: 100%; kinase still bound, per cent of control [35]: 9%; kinase still bound, per cent of control [36]: 43%; kinase still bound, per cent of control [37]: 0%; kinase still bound, per cent of control [38]: 3%; kinase still bound, per cent of control [39]: 80%; kinase still bound, per cent of control [40]: 32%
2 | O=C(Nc1cccc(Nc2ncc(Br)c(NCCc3cnc[nH]3)n2)c1)N1CCCC1 | 4.9 | 100 | 100 | 5.2 | 2 | 44 | 75 | 24 | 73 | 9.1 | 31 | 41 | 0 | 3.7 | 17 | 0.7 | 4.5 | 0 | 0.1 | 40 | kinase still bound, per cent of control [21]: 34%; kinase still bound, per cent of control [22]: 0.45%; kinase still bound, per cent of control [23]: 0.1%; kinase still bound, per cent of control [24]: 35%; kinase still bound, per cent of control [25]: 100%; kinase still bound, per cent of control [26]: 22%; kinase still bound, per cent of control [27]: 0.35%; kinase still bound, per cent of control [28]: 33%; kinase still bound, per cent of control [29]: 5.3%; kinase still bound, per cent of control [30]: 13%; kinase still bound, per cent of control [31]: 0.5%; kinase still bound, per cent of control [32]: 91%; kinase still bound, per cent of control [33]: 0.7%; kinase still bound, per cent of control [34]: 99%; kinase still bound, per cent of control [35]: 100%; kinase still bound, per cent of control [36]: 17%; kinase still bound, per cent of control [37]: 0%; kinase still bound, per cent of control [38]: 0.3%; kinase still bound, per cent of control [39]: 52%; kinase still bound, per cent of control [40]: 7.1%
